According to the NIST ThermoML archive (doi:10.1016/j.jct.2019.02.026):

Conditions: Liquid, Falling or rolling sphere viscometry

CCCCCCCCCCCC(=O)OC [methyl dodecanoate]
Conditions	viscosity [mPa·s]
302.7 K, 30290 kPa	3.6
302.94 K, 20178 kPa	3.15
303.04 K, 110 kPa	2.53
303.04 K, 10512 kPa	2.85
312.33 K, 30212 kPa	2.87
312.5 K, 20279 kPa	2.59
312.61 K, 10214 kPa	2.33
312.63 K, 134 kPa	2.09
331.07 K, 29762 kPa	2.04
331.34 K, 20420 kPa	1.86
331.51 K, 10354 kPa	1.67
331.66 K, 132 kPa	1.51
351.24 K, 29906 kPa	1.53
351.57 K, 20226 kPa	1.37
351.74 K, 10090 kPa	1.25
351.81 K, 235 kPa	1.14
361.57 K, 30100 kPa	1.35
361.6 K, 19931 kPa	1.25
361.75 K, 10141 kPa	1.12
362.23 K, 2921 kPa	1.05

CCCCCCC(=O)OC [methyl heptanoate]
Conditions	viscosity [mPa·s]
292.04 K, 30028 kPa	1.5
292.56 K, 25040 kPa	1.42
292.87 K, 19994 kPa	1.35
293.58 K, 14994 kPa	1.28
293.85 K, 9970 kPa	1.22
294.13 K, 4967 kPa	1.17
294.2 K, 107 kPa	1.11
302.83 K, 29961 kPa	1.24
302.93 K, 25017 kPa	1.2
303.02 K, 19985 kPa	1.15
303.05 K, 14993 kPa	1.1
303.08 K, 10026 kPa	1.05
303.12 K, 5011 kPa	1
303.15 K, 102 kPa	0.95
312.49 K, 29986 kPa	1.09
312.57 K, 25001 kPa	1.05
312.62 K, 20047 kPa	1.01
312.65 K, 10009 kPa	0.92
312.66 K, 15001 kPa	0.97
312.77 K, 103 kPa	0.83
312.78 K, 5010 kPa	0.88
322.09 K, 29925 kPa	0.97
322.17 K, 19955 kPa	0.89
322.21 K, 15004 kPa	0.85
322.23 K, 10018 kPa	0.81
322.23 K, 25027 kPa	0.93
322.26 K, 5004 kPa	0.77
322.33 K, 96 kPa	0.73
331.56 K, 30001 kPa	0.87
331.67 K, 19865 kPa	0.8
331.68 K, 25041 kPa	0.83
331.74 K, 15035 kPa	0.76
331.78 K, 5007 kPa	0.69
331.78 K, 9972 kPa	0.72
331.85 K, 99 kPa	0.65
341.48 K, 14961 kPa	0.69
341.67 K, 96 kPa	0.58
341.68 K, 10141 kPa	0.65
341.72 K, 5062 kPa	0.62
341.73 K, 29980 kPa	0.78
341.8 K, 25032 kPa	0.75
341.81 K, 20048 kPa	0.72
351.26 K, 14966 kPa	0.61
351.27 K, 10077 kPa	0.58
351.31 K, 19977 kPa	0.64
351.46 K, 30010 kPa	0.7
351.49 K, 24997 kPa	0.67
361.24 K, 29993 kPa	0.64
361.37 K, 20002 kPa	0.58
361.47 K, 25022 kPa	0.61

CCCCCC(=O)OC [methyl hexanoate]
Conditions	viscosity [mPa·s]
292.99 K, 29973 kPa	1.16
293.48 K, 25055 kPa	1.11
293.98 K, 19999 kPa	1.06
294.34 K, 15024 kPa	1.01
294.63 K, 9980 kPa	0.96
294.75 K, 5079 kPa	0.92
294.86 K, 105 kPa	0.87
302.79 K, 29963 kPa	1.01
302.89 K, 24988 kPa	0.97
302.98 K, 19967 kPa	0.93
303.01 K, 15014 kPa	0.89
303.05 K, 10031 kPa	0.86
303.09 K, 5026 kPa	0.81
303.12 K, 107 kPa	0.77
312.57 K, 29951 kPa	0.89
312.62 K, 24986 kPa	0.85
312.69 K, 15010 kPa	0.78
312.69 K, 20046 kPa	0.82
312.7 K, 4988 kPa	0.71
312.71 K, 10033 kPa	0.75
312.74 K, 103 kPa	0.68
321.96 K, 29975 kPa	0.8
322.08 K, 9972 kPa	0.67
322.12 K, 19979 kPa	0.74
322.14 K, 24972 kPa	0.77
322.29 K, 98 kPa	0.61
322.29 K, 5048 kPa	0.64
322.32 K, 15008 kPa	0.7
331.74 K, 30010 kPa	0.72
331.8 K, 25008 kPa	0.69
331.83 K, 14994 kPa	0.63
331.89 K, 9984 kPa	0.6
331.93 K, 20001 kPa	0.66
341.38 K, 29965 kPa	0.64
341.39 K, 20015 kPa	0.59
341.41 K, 25042 kPa	0.62

CCCCCCCCC(=O)OC [methyl nonanoate]
Conditions	viscosity [mPa·s]
297.15 K, 30034 kPa	2.11
297.5 K, 24979 kPa	2.01
297.81 K, 20011 kPa	1.93
298.08 K, 14977 kPa	1.83
298.42 K, 9955 kPa	1.73
298.77 K, 4957 kPa	1.65
299.19 K, 103 kPa	1.56
302.91 K, 24994 kPa	1.83
302.95 K, 30000 kPa	1.91
303.01 K, 9972 kPa	1.62
303.08 K, 4961 kPa	1.54
303.09 K, 15047 kPa	1.68
303.09 K, 19964 kPa	1.76
303.1 K, 106 kPa	1.46
312.06 K, 29961 kPa	1.65
312.19 K, 25005 kPa	1.57
312.27 K, 19968 kPa	1.5
312.28 K, 9996 kPa	1.38
312.28 K, 14963 kPa	1.43
312.32 K, 4993 kPa	1.32
312.38 K, 99 kPa	1.26
321.26 K, 29949 kPa	1.42
321.36 K, 24985 kPa	1.36
321.49 K, 19988 kPa	1.31
321.56 K, 10020 kPa	1.2
321.6 K, 4982 kPa	1.14
321.61 K, 15017 kPa	1.25
321.64 K, 96 kPa	1.08
330.93 K, 30013 kPa	1.24
330.94 K, 19996 kPa	1.14
331.13 K, 9979 kPa	1.04
331.13 K, 25032 kPa	1.19
331.2 K, 14998 kPa	1.09
331.23 K, 5027 kPa	0.99
331.26 K, 108 kPa	0.94
340.91 K, 19959 kPa	0.99
340.95 K, 25015 kPa	1.04
340.96 K, 30009 kPa	1.08
341.03 K, 4962 kPa	0.86
341.06 K, 10010 kPa	0.91
341.14 K, 15019 kPa	0.94
341.21 K, 96 kPa	0.81
350.73 K, 29961 kPa	0.96
350.74 K, 24964 kPa	0.92
350.81 K, 14959 kPa	0.83
350.86 K, 20020 kPa	0.87
350.88 K, 9984 kPa	0.79
350.95 K, 4985 kPa	0.75
351.04 K, 101 kPa	0.71
360.61 K, 25005 kPa	0.82
360.67 K, 29996 kPa	0.85
360.71 K, 19982 kPa	0.77
360.82 K, 9960 kPa	0.7
360.86 K, 4959 kPa	0.66
360.89 K, 14997 kPa	0.74
360.96 K, 98 kPa	0.62

CCCCCCCC(=O)OC [methyl octanoate]
Conditions	viscosity [mPa·s]
294.65 K, 30063 kPa	1.81
294.79 K, 25004 kPa	1.73
295.08 K, 19995 kPa	1.65
295.22 K, 14978 kPa	1.58
295.3 K, 10017 kPa	1.5
295.48 K, 5004 kPa	1.43
295.62 K, 102 kPa	1.37
303.06 K, 29942 kPa	1.58
303.1 K, 25013 kPa	1.52
303.11 K, 20009 kPa	1.46
303.13 K, 5014 kPa	1.27
303.13 K, 15018 kPa	1.39
303.14 K, 9987 kPa	1.33
303.16 K, 98 kPa	1.21
312.35 K, 29980 kPa	1.37
312.4 K, 25014 kPa	1.32
312.44 K, 10045 kPa	1.15
312.44 K, 20035 kPa	1.27
312.47 K, 15056 kPa	1.21
312.49 K, 5022 kPa	1.1
312.51 K, 101 kPa	1.05
321.71 K, 29998 kPa	1.21
321.89 K, 25073 kPa	1.16
321.97 K, 9991 kPa	1.01
322.02 K, 5045 kPa	0.97
322.06 K, 20031 kPa	1.11
322.09 K, 103 kPa	0.92
322.11 K, 14992 kPa	1.06
331.51 K, 29993 kPa	1.08
331.6 K, 25035 kPa	1.04
331.61 K, 20038 kPa	1
331.62 K, 5013 kPa	0.86
331.72 K, 15022 kPa	0.95
331.73 K, 10033 kPa	0.91
331.87 K, 108 kPa	0.82
341.44 K, 29966 kPa	0.96
341.56 K, 25026 kPa	0.92
341.61 K, 15013 kPa	0.84
341.62 K, 20045 kPa	0.88
341.63 K, 4984 kPa	0.76
341.64 K, 10011 kPa	0.8
341.66 K, 97 kPa	0.72
351.58 K, 103 kPa	0.64
351.6 K, 4996 kPa	0.68
351.62 K, 29959 kPa	0.87
351.64 K, 10072 kPa	0.72
351.65 K, 15006 kPa	0.75
351.7 K, 19996 kPa	0.79
351.78 K, 25021 kPa	0.83
361.2 K, 9990 kPa	0.64
361.23 K, 4990 kPa	0.61
361.41 K, 19980 kPa	0.72
361.44 K, 15037 kPa	0.68
361.45 K, 103 kPa	0.58
361.59 K, 25011 kPa	0.74
361.74 K, 29991 kPa	0.78
